Experimental data taken from patent publication US5093045A, “Biologically active lipids binding membrane receptors” (priority 1990, dated 1992).
Values joined by “and” are separate entries in the source; they are usually repeats but may differ in a detail not shown here. Equal entries are not always repeated.

Legend:
[1] = test system: phorboid receptor (PDBu receptor) of murine brain membranous fraction (BMF); assay: PDBu binding inhibiting activity (PBIA): inhibition of 3H-PDBu binding to murine brain membranous fraction; set-up: species or system mouse
Procedure: Pooled murine brains from approximately 2 month old mice, NFS strain, were minced with scissors, suspended in 1 mM triethanolamine-HCl, pH 7.4, and disrupted with a polytron P-10 (Brinkman). This and all subsequent steps were performed at 4° C. The homogenate was centrifuged for 10 minutes at 1700xg; the supernate was removed and centrifuged for 60 minutes at 105,000xg. The resulting pellet was suspended in one-fourth of the initial volume of PBS. The suspension was aliquoted into a small volume and stored at -70° C.
The binding of ^3 H-PDBu to BMF or soluble receptors was performed in duplicate in 12×75mm disposable glass tubes (Kimax) both in the absence and presence of 20μg/ml unlabeled PDBu; the binding mixture contained 5ng of ^3 H-PDBu (4×10^4 cpm), 0.2% final concentration of DMSO and BMF (50μg protein) or soluble receptors in a total volume of 0.25 ml binding buffer (BB) consisting of Dulbecco's […] (DMEM) containing bovine serum albumin (BSA lmg/ml) and N,N,-bis-(2-hydroxyethyl)-2-amino-ethane sulfonic acid (BES, 5mM), adjusted to pH 6.8. After incubation for 30 minutes at 23° C. the tubes were chilled, 0.5 ml cold 4% calf serum (Colorado Serum Co., Denver, CO) and 0.7 ml cold polyethylene glycol (PEG 6,000) in 1 mM Tris-HCl, pH 7.4 was added to each tube, the contents vortexed, the tubes allowed to stand for 15 min at 4° C., and centrifuged for 10 min at 1500xg at 4° C. The supernatant solution was carefully aspirated off, the pellet suspended in 2.5 ml of cold 10% PEG in 0.1 M Tris-HCl, pH 7.4, containing 0.5% SDS and 1 mM EDTA). The mixture was transferred to counting vials and 10 ml of Aquassure (NEN) was added to each vial. The vials were vigorously shaken and radioactivity determined using a Beckman beta counter.
The loss of the ability of ^3 H-PDBu to bind to receptors in the presence of ligand was used as the measure of inhibiting activity. PDBu binding inhibition assays were performed as described above, except the test materials were added to the reaction mixture and binding measured as described above.
The PBIA of ligand was equated with that of PDBu by the use of the term ng equivalent calculated from a plot of [^3 H]PDBu bound versus the log molar concentration for several biologically active phorbol esters (2). The curve corresponding to PDBu inhibition of PDBu binding was used by reading the molar concentration corresponding to the percent of control binding of ^3 H]PDBu in the presence of ligand to obtain the units ng PDBu equivalent of ligand.

[2] = test system: arachidonic acid cascade in mink lung cells; assay: Stimulation of arachidonic acid cascade: release of radioactivity from cells prelabeled with arachidonic acid; format: cell-based; settings: cells previously labeled with radioactive arachidonic acid
Source text: The release of radioactivity into the medium from cells previously labeled with radioactive arachidonic was used as a measure of activation of eicosanoids pathway. […] PBIL from all sources inhibited PDBu-receptor interaction.

SMILES | Inhibition (%) of binding of PDBu to its receptor ([1]; concentration 0.4 nM) | Inhibition (%) of binding of PDBu to its receptor ([1]; concentration 0.8 nM) | other results
OCC(O)CO [Glycerol] | 0% |  | 
CCCCCCCCCCCCCCCC(=O)OCC(O)CO (centres unmarked) [1-Monopalmitin] |  |  | Inhibition (%) of binding of PDBu to its receptor ([1]; concentration 0.8 nM, 0.0008 µM): -6% and -15%
CCCCCCCCCCCC(=O)OCC(COC(=O)CCCCCCCCCCC)OC(=O)CCCCCCCCCCC [Trilaurin] | 11% |  | 
CCCCCCCC/C=C\CCCCCCCC(=O)OCC(CO)OC(=O)CCCCCCC/C=C\CCCCCCCC (centres unmarked) [1,2-Diolein] |  | 20% | 
CCCCC/C=C\C/C=C\CCCCCCCC(=O)O [Linoleic acid-Na] | 10% | 15% | 
CCCCCC/C=C\CCCCCCCC(=O)OCC(O)CO (centres unmarked) [1-Monopalmitolein] | 36% | 82% | Competition with phorbol dibutyrate for its receptor (qualitative) [1]: compete with phorbol dibutyrate for its receptor; Stimulation of arachidonic acid cascade (release of radioactivity into the medium) [2]: stimulate the arachidonic acid cascade
CCCCCCCCCCCCCCCC(=O)OCC(O)COC(=O)CCCCCCCCCCCCCCC [1,3-Dipalmitin] |  | -12% | 
CCCCCCCC/C=C\CCCCCCCC(=O)OCC(O)CO (centres unmarked) [1-Monoolein] | 21% | 63% | 
CCCCCCCCCCCCCC(=O)OCC(O)CO (centres unmarked) [1-Monomyristin] | 0% |  | 
CCCCC/C=C\C/C=C\CCCCCCCC(=O)OC[C@@H](O)CO [1-Monolinolein] | 82% | 94% | Competition with phorbol dibutyrate for its receptor (qualitative) [1]: compete with phorbol dibutyrate for its receptor; Inhibition (%) of binding of PDBu to its receptor ([1]; concentration 0.2 nM): 39%; Stimulation of arachidonic acid cascade (release of radioactivity into the medium) ([2]; listed as 1-monolinolein): stimulate the arachidonic acid cascade; Stimulation of arachidonic acid cascade (release of radioactivity into the medium) ([2]; listed as monolinolein): activated the arachidonic acid cascade
CC/C=C\C/C=C\C/C=C\CCCCCCCC(=O)OCC(O)CO (centres unmarked) [1-Monolinolenin] | 74% | 94% | Inhibition (%) of binding of PDBu to its receptor ([1]; concentration 0.2 nM): 27%
CCCCC/C=C\C/C=C\CCCCCCCC(=O)OCC(O)COC(=O)CCCCCCC/C=C\C/C=C\CCCCC [1,3-Dilinolein] |  | 15% | 
CCCCCCCCCCCCCC(=O)OCC(O)COC(=O)CCCCCCCCCCCCC [1,3-Dimyritin] | 1% |  | 
CCCCC/C=C\C/C=C\C/C=C\C/C=C\CCCC(=O)OCC(O)CO (centres unmarked) [1-Monoarachidonin] | 91% | 95% | Competition with phorbol dibutyrate for its receptor (qualitative) [1]: compete with phorbol dibutyrate for its receptor; Inhibition (%) of binding of PDBu to its receptor ([1]; concentration 0.2 nM): 41%; Stimulation of arachidonic acid cascade (release of radioactivity into the medium) [2]: stimulate the arachidonic acid cascade
CCCCC/C=C\C/C=C\CCCCCCCC(=O)OCC(COC(=O)CCCCCCC/C=C\C/C=C\CCCCC)OC(=O)CCCCCCC/C=C\C/C=C\CCCCC [Trilinolein] |  | -1% | 
CCCCCCCC/C=C\CCCCCCCC(=O)OCC(O)COC(=O)CCCCCCC/C=C\CCCCCCCC [1,3-Diolein] |  | 11% | 
CCCCCCCCCCCCCCCC(=O)OCC(COC(=O)CCCCCCCCCCCCCCC)OC(=O)CCCCCCCCCCCCCCC [Tripalmitin] | -11% | -8% | 
CCCCCCCCCCCCCC(=O)OCC(COC(=O)CCCCCCCCCCCCC)OC(=O)CCCCCCCCCCCCC [Trimystrin] | 15% |  | 
